These results are taken from US7611873B1, “Method for producing L-methionine by fermentation” (priority 1998, dated 2009).

What all share (assay type): biochemical
The target of assay [1] is T1, homoserine transsuccinylase (HTS) of W3110 strain (wild-type) (Escherichia coli, UniProt P07623).
T1 construct: The HTS activity in the crude enzyme extract was measured; endogenous in cells; host or cells: E. coli W3110 (wild strain), desalted crude enzyme extract
In words: HTS activity in crude enzyme extract in the presence of inhibitors, W3110 (wild strain). The note with it: no addition 22.3. As for the experimental part: (§1) In order to confirm the effect of the metJ deletion by the recombination, a crude enzyme extract was prepared from the cells, and the activities of HTS and cystathionine synthase were measured. The W3110 strain and the WΔJ strain were each inoculated to 2 ml of LB medium, and cultured at 37° C. overnight. 1 ml of the medium was centrifuged at 5,000 rpm for 10 minutes, and the cells were washed twice with 0.9% saline. The obtained cell were suspended in 1 ml of 0.9% saline, 0.5 ml of which was inoculated to 50 ml of Davis-Mingioli minimal medium (Davis B. D., and Mingioli, E. S., J. Bacteriol., 60, 17-28 (1950)) containing 5 mM L-methionine. The cells were cultured at 37° C. for 24 hours, then the medium was centrifuged at 8,000 rpm for 10 minutes, and the cells were washed twice with 0.9% saline. The cells were suspended in 3 ml of 50 mM potassium phosphate buffer (pH 7.5) containing 1 mM dithiothreitol. This suspension was subjected to a cell disruption treatment at 4° C. with a power of 150 W for 5 minutes by using an ultrasonicator (Kubota Co.). The sonicated suspension was centrifuged at 15,000 rpm for 30 minutes, and the supernatant was desalted in a Sephadex G-50 column (Pharmacia) to obtain a crude enzyme extract. The HTS activity and the cystathionine synthase activity in the crude enzyme extract were measured.
(§2) As for the HTS activity, 5 μl of the crude enzyme extract was added to a reaction mixture comprising 0.1 M potassium phosphate (pH 7.5), 1 mM succinyl-coenzyme A (Sigma), 0.2 nM DL-[^14C]homoserine (Muromachi Chemical Industry), and 0.2 mM L-homoserine to obtain a volume of 50 μl, and allowed to react at 30° C. for 10 minutes. 1 μl of the reaction mixture was spotted on a cellulose plate (Merck), and developed with a mixed solvent containing acetone, butanol, water, and diethylamine at a ratio of 10:10:5:2. After the plate was air-dried, autoradiography was performed by using an image analyzer (Fuji Photo Film).
(§3) The cells were washed twice with 1 ml of 0.9% saline, and suspended in 1 ml of 0.9% saline, 0.5 ml of which was inoculated to 50 ml of minimal medium and cultured at 37° C. for one day. The medium was centrifuged at 8,000 rpm for 10 minutes, and the cells were washed twice with 1 ml of 0.9% saline. The obtained cells were suspended in 3 ml of 50 mM potassium phosphate buffer (pH 7.5) containing 1 mM dithiothreitol, and a crude enzyme extract was obtained in the same manner as in Example 1. The HTS activity in the crude enzyme extract was measured with the reaction composition mentioned in Example 1 in the presence of an inhibitor.

The target in assay [2] is T2, HTS derived from MM resistant strain WMM4 (296th isoleucine changed to serine) (Escherichia coli, UniProt P07623, I296S).
T2 construct: The HTS activity in the crude enzyme extract was measured; endogenous in cells; host or cells: E. coli WMM4 (spontaneous MM-resistant mutant of W3110), crude enzyme extract
T2 sequence (P07623 whole entry I296S): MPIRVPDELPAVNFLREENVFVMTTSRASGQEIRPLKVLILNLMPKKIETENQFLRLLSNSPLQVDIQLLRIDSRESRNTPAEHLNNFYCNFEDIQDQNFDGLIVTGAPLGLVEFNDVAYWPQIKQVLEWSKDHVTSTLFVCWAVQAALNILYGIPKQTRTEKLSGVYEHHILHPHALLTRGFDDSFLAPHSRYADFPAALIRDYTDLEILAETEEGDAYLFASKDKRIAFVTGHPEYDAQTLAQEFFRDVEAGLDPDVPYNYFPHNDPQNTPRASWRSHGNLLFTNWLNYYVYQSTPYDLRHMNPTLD
The note with it: for HTS activity in the presence of inhibitor: WMM4, no addition 4.5; for Inhibition of HTS activity (in words): WMM4 strain, compared with wild strain. As for the experimental part: as §1, §2
(§4) Chromosomal DNA was prepared from these resistant strains. PCR was performed by using each chromosomal DNA as a template and primers having the sequences represented as SEQ ID NOS: 21 and 22 to amplify the metA gene. The nucleotide sequence of each amplification fragment was determined by using primers for amplification of which nucleotide sequences are represented as SEQ ID NOS: 21 and 22, and primers having the sequences represented as SEQ ID NOS: 23 and 24.
as §3

The target in assay [3] is T3, HTS derived from MM resistant strain WMM5 (proline 298 changed to leucine) (Escherichia coli, UniProt P07623, P298L).
T3 construct: The HTS activity in the crude enzyme extract was measured; endogenous in cells; host or cells: E. coli WMM5 (spontaneous MM-resistant mutant of W3110), crude enzyme extract
T3 sequence (P07623 whole entry P298L): as the sequence (P07623 whole entry I296S) above, with S296I, P298L counted along it
The note with it: for HTS activity in the presence of inhibitor: WMM5, no addition 4.5; for Inhibition of HTS activity (in words): WMM5 strain, compared with wild strain. Here is the method: as §1, §2, §4, §3

For assay [4], the target named is T4, HTS derived from MM resistant strain WMM7 (IS2 insertion, proline 298 and subsequent residues changed) (Escherichia coli, UniProt P07623).
T4 construct: The HTS activity in the crude enzyme extract was measured; endogenous in cells; host or cells: E. coli WMM7 (MM-resistant mutant of W3110 with IS2 in metA), crude enzyme extract
T4 sequence (P07623 other isoform, or with tags, fused parts or gaps, stated change not applied): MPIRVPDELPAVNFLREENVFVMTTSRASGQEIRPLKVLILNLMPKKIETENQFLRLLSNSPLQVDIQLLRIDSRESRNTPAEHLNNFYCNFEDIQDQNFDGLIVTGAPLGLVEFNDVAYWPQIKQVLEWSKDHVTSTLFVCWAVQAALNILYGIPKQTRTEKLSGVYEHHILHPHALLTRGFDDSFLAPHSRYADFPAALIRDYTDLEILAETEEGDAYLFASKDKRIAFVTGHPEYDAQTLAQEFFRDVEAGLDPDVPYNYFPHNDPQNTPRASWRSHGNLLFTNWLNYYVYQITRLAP
The following applies: no addition 0.0 (activity undetectable). Here is the method:
as §1, §2, §4, §3

The target of assay [5] is T5, HTS derived from MM resistant strain WMM9 (arginine 27 changed to cysteine) (Escherichia coli, UniProt P07623, R27C).
T5 construct: The HTS activity in the crude enzyme extract was measured; endogenous in cells; host or cells: E. coli WMM9 (spontaneous MM-resistant mutant of W3110), crude enzyme extract
T5 sequence (P07623 whole entry R27C): as the sequence (P07623 whole entry I296S) above, with R27C, S296I counted along it
The note with it: for HTS activity in the presence of inhibitor: WMM9, no addition 5.0; for Inhibition of HTS activity (in words): WMM9 strain, compared with wild strain. As for the experimental part: as §1, §2, §4, §3

Like-named read-outs stand apart in the source and are kept apart here.

T1 sequence (P07623 whole entry): as the sequence (P07623 whole entry I296S) above, with S296I counted along it

Turning to `CSCCC(C)(N)C(=O)O` (racemic) [MM, α-methyl-DL-methionine], the “HTS activity in the presence of inhibitor” value (from here on “HTS activity … of inhibitor”) amounted to 18.6 mmol/min/mg protein in assay [1] (0.1 mM inhibitor); 7.0 mmol/min/mg protein in assay [1] (1 mM inhibitor); 4.1 mmol/min/mg protein in assay [2] (0.1 mM inhibitor); 4.6 mmol/min/mg protein in assay [2] (1 mM inhibitor); 4.6 mmol/min/mg protein in assay [3] (0.1 mM inhibitor); 4.8 mmol/min/mg protein in assay [3] (1 mM inhibitor). Moreover, the “HTS activity … of inhibitor” value in assay [4] (0.1 mM inhibitor) came out at 0.0 mmol/min/mg protein; in assay [4] (1 mM inhibitor) it was 0.0 mmol/min/mg protein; in assay [5] (0.1 mM inhibitor), 4.9 mmol/min/mg protein; in assay [5] (1 mM inhibitor) it was 2.7 mmol/min/mg protein. For the same molecule, the “Inhibition of HTS activity (in words)” value in assay [2], in assay [3] and in assay [5] was “canceled” throughout.

With `CSCC[C@H](N)C(=O)O` [Met, L-methionine], the “HTS activity … of inhibitor” value in assay [1] (0.1 mM inhibitor) amounted to 14.3 mmol/min/mg protein; in assay [1] (1 mM inhibitor), 0.8 mmol/min/mg protein; in assay [2] (0.1 mM inhibitor) it was 4.5 mmol/min/mg protein; in assay [2] (1 mM inhibitor), 4.0 mmol/min/mg protein; in assay [3] (0.1 mM inhibitor), 4.2 mmol/min/mg protein; in assay [3] (1 mM inhibitor), 4.0 mmol/min/mg protein. For the same molecule, the “HTS activity … of inhibitor” value in assay [4] (0.1 mM inhibitor) came to 0.0 mmol/min/mg protein; in assay [4] (1 mM inhibitor) it was 0.0 mmol/min/mg protein; in assay [5] (0.1 mM inhibitor) it was 2.5 mmol/min/mg protein; in assay [5] (1 mM inhibitor), 2.2 mmol/min/mg protein. Besides, the “Inhibition of HTS activity (in words)” value in assay [2], in assay [3] and in assay [5] was “reduced considerably” in each case.

Regarding `C[S+](CC[C@H](N)C(=O)[O-])C[C@H]1O[C@@H](n2cnc3c(N)ncnc32)[C@H](O)[C@@H]1O` (stereo partly drawn) [SAM, S-adenosylmethionine], the “HTS activity … of inhibitor” value in assay [1] (0.1 mM inhibitor) came out at 17.0 mmol/min/mg protein; in assay [1] (1 mM inhibitor), 3.0 mmol/min/mg protein; in assay [2] (0.1 mM inhibitor), 4.6 mmol/min/mg protein; in assay [2] (1 mM inhibitor), 2.6 mmol/min/mg protein; in assay [3] (0.1 mM inhibitor), 3.6 mmol/min/mg protein; in assay [3] (1 mM inhibitor) it was 3.3 mmol/min/mg protein. In addition, the “HTS activity … of inhibitor” value in assay [4] (0.1 mM inhibitor) is listed as 0.0 mmol/min/mg protein; in assay [4] (1 mM inhibitor) it was 0.0 mmol/min/mg protein; in assay [5] (0.1 mM inhibitor), 1.1 mmol/min/mg protein; in assay [5] (1 mM inhibitor) it was 0.5 mmol/min/mg protein. The “Inhibition of HTS activity (in words)” value in assay [2] is “tendency of cancellation”; in assay [3], “tendency of cancellation”; in assay [5], “hardly canceled”.
